Measured values from ChEMBL document CHEMBL4414642, “Buxaustroines A-N, a Series of 17(13→18)abeo-Cycloartenol Triterpenoidal Alkaloids from Buxus austro-yunnanensis and Their Cardioprotective Activities” (J Nat Prod, 2019).
Calls of active or inactive are those of the source. No cut-off for these calls is given here.

Columns and labels:
[1] = test system: H9c2; assay: Cytotoxicity against rat H9c2 cells at 1 uM after 48 hrs by CCK-8 assay; type: cell-based; settings: h9c2, 48 h
[2] = test system: H9c2; assay: Cardioprotective activity against rat H9c2 cells assessed as inhibition of doxorubicin-induced reduction in cell viability at 0.5 uM preincubated for 30 mins followed by doxorubicin treatment and measured after 48 hrs by CCK8 assay; type: functional, cell-based
[3] = test system: H9c2; assay: Cardioprotective activity against rat H9c2 cells assessed as inhibition of doxorubicin-induced reduction in cell viability at 1 uM preincubated for 30 mins followed by doxorubicin treatment and measured after 48 hrs by CCK8 assay; type: functional, cell-based

For `CCC1=C[C@H]2CC[C@@]34C[C@]35CC[C@H](N(C)C)[C@@H](C)[C@@H]5CC[C@H]4[C@]2(C)CC1=O`, the Activity [1] was “Non-Toxic”, the Activity [2] was “Active” and the Activity [3] was “Active”.

In the case of `C=C1[C@@H](NC)CC[C@@]23C[C@]24CC[C@@H]2C=C(CC)C(=O)C[C@@]2(C)[C@@H]4CC[C@@H]13`, the Activity [1] is reported as “Non-Toxic” and the Activity [2] is reported as “Active”.

With `C=C1[C@@H](N(C)C)CC[C@@]23C[C@]24CC[C@]2(O)C=C(CC)C(=O)C[C@@]2(C)[C@@H]4CC[C@@H]13` the Activity [1] was “Non-Toxic”, the Activity [2] was “inactive” and the Activity [3] was “inactive”.

In the case of `C=C1[C@@H](NC)CC[C@@]23C[C@]24CC=C2C=C(CC)C(=O)C[C@@]2(C)[C@@H]4CC[C@@H]13`, the Activity [1] is reported as “Non-Toxic” and the Activity [2] is reported as “Active”.

In the case of `C/C=C1/C(=O)C[C@@]2(C)[C@@H]3CC[C@H]4C(C)(C)[C@@H](NC)CC[C@]45C[C@@]35CC[C@]12C`, the Activity [1] is reported as “Non-Toxic” and the Activity [2] is reported as “Active”.

`C=C1[C@@H](NC)CC[C@@]23C[C@]24CCC2=C[C@](O)(CC)C(=O)C[C@@]2(C)[C@@H]4CC[C@@H]13` was tested, and the Activity [1] was “Non-Toxic”.

In the case of `CCC1=C[C@H]2CC[C@@]34C[C@]35CC[C@H](NC)C(C)(C)[C@@H]5C=C[C@H]4[C@]2(C)CC1=O`, the Activity [1] is reported as “Non-Toxic” and the Activity [2] is reported as “Active”.

For `C=C1[C@@H](N(C)C)CC[C@@]23C[C@]24CC[C@]2(O)C[C@H](CC)C(=O)C[C@@]2(C)[C@@H]4CC[C@@H]13`, the Activity [1] was “Non-Toxic”, the Activity [2] was “inactive” and the Activity [3] was “inactive”.

With `C=C1[C@@H](NC)CC[C@@]23C[C@]24CC[C@]2(O)C[C@H](CC)C(=O)C[C@@]2(C)[C@@H]4CC[C@@H]13` the Activity [1] was “Non-Toxic”, the Activity [2] was “inactive” and the Activity [3] was “inactive”.

For `CC[C@H]1C=C2CC[C@@]34C[C@]35CC[C@H](NC)C(C)(C)[C@@H]5C=C[C@H]4[C@]2(C)C[C@@H]1O`, the Activity [1] was “Non-Toxic”.

For `CC[C@H]1C[C@@]2(O)CC[C@@]34C[C@]35CC[C@H](NC)C(C)(C)[C@@H]5CC[C@H]4[C@]2(C)CC1=O`, the Activity [1] was “Non-Toxic”, the Activity [2] was “inactive” and the Activity [3] was “inactive”.

For `CCC1=C[C@H]2CC[C@@]34C[C@]35CC[C@H](NC)C(C)(C)[C@@H]5C[C@H](OC(C)=O)[C@H]4[C@]2(C)CC1=O`, the Activity [1] was “Non-Toxic”.

For `CCC1=C[C@@]2(O)CC[C@@]34C[C@]35CC[C@H](NC)C(C)(C)[C@@H]5C=C[C@H]4[C@]2(C)CC1=O`, the Activity [1] was “Non-Toxic”, the Activity [2] was “inactive” and the Activity [3] was “inactive”.

For `CCC1=CC2=CC[C@@]34C[C@]35CC[C@H](NC)C(C)(C)[C@@H]5CC[C@H]4[C@]2(C)CC1=O`, the Activity [1] was “Non-Toxic” and the Activity [2] was “Active”.

With `CN[C@@H](C)[C@H]1[C@H](O)C[C@@]2(C)[C@@H]3CC[C@H]4C(C)(C)[C@@H](NC)CC[C@]45C[C@@]35CC[C@]12C` the Activity [1] was “Non-Toxic” and the Activity [3] was “Active”.

For `CCC1=C[C@H]2CC[C@@]34C[C@]35CC[C@H](NC)[C@@H](C)[C@@H]5CC[C@H]4[C@]2(C)CC1=O`, the Activity [1] was “Non-Toxic” and the Activity [2] was “Active”.
